The record followed here is patent publication US20230174488A1 (priority 2020, published 2023).

The target in data set [1] is T1, SARS-CoV-2 M^PRO (Severe acute respiratory syndrome coronavirus 2, UniProt P0DTD1). The experiment in a line: biochemical. The class given is biochemical. The conditions noted are these: In vitro potency data; 30 min pre-incubation, 25 nM M^pro, 25 µM substrate; read-out: IC50.
The format of data set [2] is in vitro ADME. The conditions noted are these: human, microsomes.
Procedure: (§1) Cold ACN, including 100 ng/ml tolbutamide and 100 ng/ml labetalol as internal standard (IS), was used for the stop solution. Compound or control working solution (10 µl per well) was added to all plates (T0, T5, T10, T20, T30, T60, and NCF60), except the matrix blank. Dispensed microsome solution (80 µl per well) was added to every plate by Apricot and the mixture of microsome solution and compound was incubated at 37° C. for approximately 10 min. After prewarming, a dispensed NADPH regenerating system (10 µl per well) was added to every plate by Apricot to start a reaction. The solution was then incubated at 37° C. Stop solution (300 µl per well, 4° C.) was then added to terminate the reaction. The sampling plates were shaken for approximately 10 minutes. The samples were centrifuged at 4,000 rpm. for 20 min at 4° C. While centrifuging, new 8×96-well plates were loaded with 300 µl HPLC water, and then 100 µl supernatant was transferred and mixed for liquid chromatography-tandem mass spectrometry (LC/MS/MS).
The nature of data set [3]: Microsomal stability, mouse liver microsomes. Format: in vitro ADME. The conditions noted are these: CD-1, mouse.
Procedure: as §1
Another data set can be described thus: Caco-2 permeability. The class given is in vitro ADME. The conditions noted are these: human, Caco-2, pH 7.4.
The nature of the next data set: PAMPA permeability assay. Format: in vitro ADME.
The nature of another data set: Plasma stability, mice. Format: in vitro ADME. The conditions noted are these: mouse.
A further data set in a line: Plasma stability, human. The class given is in vitro ADME. The conditions noted are these: pH 7.4.
A short description of a further data set: physchem. The conditions noted are these: water, kinetic from dmso stock.
A short description of data set [4]: in vitro. The conditions noted are these: mouse.
A short description of data set [5]: in vitro. The conditions noted are these: human.
The target in another data set is CYP 2C9 (Homo sapiens, UniProt P11712). The data set is described as follows: biochemical.
Chain of CYP 2C9 (P11712 whole entry): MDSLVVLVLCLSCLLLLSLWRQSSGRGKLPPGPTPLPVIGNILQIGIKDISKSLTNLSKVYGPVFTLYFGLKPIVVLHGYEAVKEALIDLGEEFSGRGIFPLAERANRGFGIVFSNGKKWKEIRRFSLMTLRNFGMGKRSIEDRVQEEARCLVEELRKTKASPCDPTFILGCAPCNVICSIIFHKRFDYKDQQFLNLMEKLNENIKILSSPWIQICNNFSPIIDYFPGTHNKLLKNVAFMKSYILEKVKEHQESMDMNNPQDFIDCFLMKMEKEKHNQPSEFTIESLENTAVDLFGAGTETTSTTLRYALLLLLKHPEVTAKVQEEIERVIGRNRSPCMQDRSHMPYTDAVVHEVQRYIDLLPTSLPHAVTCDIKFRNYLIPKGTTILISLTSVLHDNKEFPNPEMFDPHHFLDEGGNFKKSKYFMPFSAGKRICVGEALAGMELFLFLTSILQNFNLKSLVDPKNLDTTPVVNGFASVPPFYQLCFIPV
A further data set concerns the target T2, CYP 1A2 (Homo sapiens, UniProt P05177).
T2 sequence (P05177 1-516): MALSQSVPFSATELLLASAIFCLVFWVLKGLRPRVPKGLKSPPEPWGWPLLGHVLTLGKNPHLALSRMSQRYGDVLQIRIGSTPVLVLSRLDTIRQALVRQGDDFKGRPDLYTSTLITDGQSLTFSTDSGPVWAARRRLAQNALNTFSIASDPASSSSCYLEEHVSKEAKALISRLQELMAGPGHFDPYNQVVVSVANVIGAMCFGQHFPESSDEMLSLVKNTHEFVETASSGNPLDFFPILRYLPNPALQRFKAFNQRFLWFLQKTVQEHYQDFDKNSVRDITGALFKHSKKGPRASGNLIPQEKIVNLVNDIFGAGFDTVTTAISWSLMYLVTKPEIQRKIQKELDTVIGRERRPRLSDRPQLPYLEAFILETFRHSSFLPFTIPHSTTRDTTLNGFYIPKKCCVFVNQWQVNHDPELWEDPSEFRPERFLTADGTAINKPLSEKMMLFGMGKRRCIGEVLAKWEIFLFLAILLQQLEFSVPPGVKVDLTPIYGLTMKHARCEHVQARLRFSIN
The data set is described as follows: CYP inhibition assay, 1A2.

The target in a further data set is CYP 2D6 (Homo sapiens, UniProt P10635). The data set is described as follows: CYP inhibition assay, 2D6.
Chain of CYP 2D6 (P10635 whole entry): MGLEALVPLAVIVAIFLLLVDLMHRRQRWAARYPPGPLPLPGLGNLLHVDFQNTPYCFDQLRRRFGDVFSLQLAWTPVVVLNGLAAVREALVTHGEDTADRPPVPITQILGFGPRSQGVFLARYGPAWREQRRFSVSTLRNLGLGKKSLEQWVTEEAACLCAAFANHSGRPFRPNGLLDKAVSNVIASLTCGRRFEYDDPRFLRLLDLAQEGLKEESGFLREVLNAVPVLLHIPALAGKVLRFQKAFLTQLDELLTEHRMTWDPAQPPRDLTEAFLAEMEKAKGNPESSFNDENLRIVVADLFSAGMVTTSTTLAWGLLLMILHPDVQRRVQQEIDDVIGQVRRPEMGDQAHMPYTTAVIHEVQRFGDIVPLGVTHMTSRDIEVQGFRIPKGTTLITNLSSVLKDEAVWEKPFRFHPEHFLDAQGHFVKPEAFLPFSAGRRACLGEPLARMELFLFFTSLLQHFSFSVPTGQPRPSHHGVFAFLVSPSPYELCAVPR
Another data set concerns the target CYP 3A4 (Homo sapiens, UniProt P08684). The data set is described as follows: CYP inhibition assay, 3A4.
For the next data set, the target named is CYP 2C19 (Homo sapiens, UniProt P33261). The data set is described as follows: CYP inhibition assay, 2C19.
Chain of CYP 2C19 (P33261 whole entry): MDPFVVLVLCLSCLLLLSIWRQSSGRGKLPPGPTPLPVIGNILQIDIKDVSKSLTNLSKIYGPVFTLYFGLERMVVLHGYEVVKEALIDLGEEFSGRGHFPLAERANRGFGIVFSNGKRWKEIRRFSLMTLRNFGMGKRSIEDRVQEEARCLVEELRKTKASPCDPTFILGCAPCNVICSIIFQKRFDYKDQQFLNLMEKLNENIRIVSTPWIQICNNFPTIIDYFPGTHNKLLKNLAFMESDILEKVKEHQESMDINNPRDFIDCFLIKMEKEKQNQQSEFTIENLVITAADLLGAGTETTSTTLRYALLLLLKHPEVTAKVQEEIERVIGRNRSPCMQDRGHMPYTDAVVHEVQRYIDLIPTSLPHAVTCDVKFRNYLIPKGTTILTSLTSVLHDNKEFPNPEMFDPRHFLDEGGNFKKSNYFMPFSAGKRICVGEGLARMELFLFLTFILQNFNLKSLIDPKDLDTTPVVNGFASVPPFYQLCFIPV
For another data set, the system named is SARS-CoV-2. The experiment in a line: In vitro antiviral cell-based assay (live SARS-CoV-2 IFA) in Vero cells. The conditions noted are these: Severe acute respiratory syndrome coronavirus 2, MOI ~0.0125, 24 hpi.
For data set [6] the following is noted: mouse, plasma.
The conditions of data set [7]: plasma.
Data set [8] in a line: in vitro. The conditions noted are these: African green monkey.
Data set [9] deals with T1, SARS-CoV-2 M^PRO. The data set is described as follows: Crystal structure of ligand bound to SARS-CoV-2 M^pro. The conditions noted are these: X-ray, complex with SARS-CoV-2 M^pro.
Data set [10] can be described thus: Cytotoxicity (CC50) in Vero cells. The conditions noted are these: African green monkey.

In brackets after ≈: the same amount, converted by molar mass. Like-named read-outs stand apart in the source and are kept apart here.

Chain of CYP 3A4 (P08684 whole entry): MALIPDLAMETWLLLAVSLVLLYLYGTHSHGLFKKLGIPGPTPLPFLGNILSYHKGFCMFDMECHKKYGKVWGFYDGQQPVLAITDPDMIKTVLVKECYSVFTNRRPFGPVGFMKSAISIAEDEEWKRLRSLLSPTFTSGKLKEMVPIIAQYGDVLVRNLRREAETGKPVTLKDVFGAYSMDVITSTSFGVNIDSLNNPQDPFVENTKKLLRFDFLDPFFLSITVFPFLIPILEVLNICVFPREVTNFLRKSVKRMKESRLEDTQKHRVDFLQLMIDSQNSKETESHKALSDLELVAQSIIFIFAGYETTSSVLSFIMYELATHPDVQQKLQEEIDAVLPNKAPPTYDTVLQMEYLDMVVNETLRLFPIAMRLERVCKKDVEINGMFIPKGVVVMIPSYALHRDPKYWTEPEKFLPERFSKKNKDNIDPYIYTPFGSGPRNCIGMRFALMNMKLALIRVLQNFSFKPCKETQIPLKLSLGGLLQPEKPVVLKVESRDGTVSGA
Procedure for CYP 1A2: (§2) The following reagents/reactants were used in the assay: water was purified by ELGA Lab purification systems, buffer solution: PB (100 mM), MgCl2 (33 mM), organic solvents were AR or HPLC grade, CYP substrates: phenacetin (10 µM, 25 µL, 1A2), diclofenac (5 µM, 25 µL, 2C9), S-mephenytoin (30 µM, 75 µL, 2C19), dextromethorphan (5 µM, 12,5, 2D6), and midazolam (2 µM, 10 µL, 3A4), stock solutions were prepared in MeOH (20, 10, 20, 20, and 10 mM, respectively). Positive controls: α-naphthoflavone, sulfaphenazole, (+)-N-3-benzylnirvanol, quinidine, and ketoconazole, final concentration was 3 µM in MeOH (90 µL), stock solutions were prepared in DMSO (3 mM for all the inhibitors). Test compounds were evaluated using five conc. points at the range of 15-5,000 µM. […] Main procedure: working solution (100×) of the test compound and standard inhibitors were prepared, microsomes were pulled out of the -80° C. freezer to thaw on ice, labeled the date and put it back to the freezer immediately after use. Substrates (20 µL) and PB (20 µL) were added to corresponding wells and Blank wells, respectively. […] HLM working solution (158 µL) was added to all wells of the incubation plate. Plate was pre-warmed for about 10 min at 37° C. in a water bath, then NADPH (20 µL) was added to all incubation wells. CYPs were mixed and incubated for 10 min at 37° C. in a water bath. The reaction was terminated at the time point by adding a 400 µL cold stop solution (200 ng/mL tolbutamide and labetalol in ACN). Samples were centrifuged at 4000 rpm for 20 minutes to precipitate protein. Supernatant (200 µL) was transferred to 100 µL HPLC water and shaken for 10 min, then samples were subjected for LC/MS/MS analysis. XL fit was used to plot the percent of vehicle control vs the test compound concentrations, and for non-linear regression analysis of the data. IC50 values were determined using 3- or 4-parameter logistic equations.
Procedure for CYP 2C19: as §2
Procedure for CYP 2C9: as §2
Procedure for CYP 2D6: as §2
Procedure for CYP 3A4: as §2
Procedure for Caco-2 permeability: Medium was refreshed every 4 \~5 days until the 21st to 28th day for confluent cell monolayer formation. The transport buffer was HBSS with 10 mM HEPES at pH=7.40±0.05. […] Final DMSO concentration was adjusted to less than 1%. The plate was incubated for 2 h in the CO2 incubator at 37±1° C., with 5% CO2 at saturated humidity without shaking. All the samples were then mixed with acetonitrile containing internal standard and centrifuged at 3200 xg for 10 min. For nadolol and metoprolol, 100 µL supernatant solution was diluted with 300 µL distilled water for LC-MS/MS analysis. For digoxin and test compounds, 100 µL supernatant solution was diluted with 100 µL distilled water for LC-MS/MS analysis. Concentrations of test and control compounds in starting solution, donor solution, and receiver solution were quantified by LC-MS/MS methodologies, using peak area ratio of analyte/internal standard. After transport assay, lucifer yellow rejection assay was applied to determine the Caco-2 cell monolayer integrity. The apparent permeability coefficient Papp (cm/s) was calculated using the equation:
where d/Cr/6t is the cumulative concentration of compound in the receiver chamber as a function of time (µM/s); Vr is the solution volume in the receiver chamber (0.075 mL on the apical side, 0.25 mL on the basolateral side); A is the surface area for the transport, i.e. 0.0804 cm^2 for the area of the monolayer; C0 is the initial concentration in the donor chamber (µM).
The efflux ratio was calculated using the equation:
where Vd is the volume in the donor chambers (0.075 mL on the apical side, 0.25 mL on the basolateral side); Cd and Cr are the final concentrations of the transport compound in donor and receiver chambers, respectively.
Procedure for PAMPA permeability assay: 2.6 g KH2PO4 and 18.5 g K3PHO4×3H2O were dissolved in 1000 mL of ultra-pure water, mixed thoroughly. The pH was adjusted to 7.40 ± 0.05, using either 1 M sodium hydroxide or 1 M hydrochloric acid. 0.2 mM working solution was prepared by diluting 10 mM stock solution with DMSO. 10 µM donor solution (5% DMSO) was prepared by diluting 20 µL of working solution with 380 µL PBS. 150 µL of 10 µM donor solutions to each well of the donor plate, whose PVDF membrane was precoated with 5 µL of 1% lecithin/dodecane mixture. Duplicates were prepared. 300 µL of PBS was added to each well of the PTFE acceptor plate. The donor plate and acceptor plate were combined together and incubated for 4 h at room temperature with shaking at 300 rpm. […] Preparation of acceptor sample: the plate was removed from the incubator. 270 µL solution was transferred from each acceptor well and mixed with 130 µL ACN (containing internal standard) as acceptor sample. […] Acceptor samples and donor samples were all analyzed by LC-MS/MS.
Procedure for Plasma stability, human: (§3) Propantheline bromide was used as a reference compound in this assay. The pooled frozen plasma was thawed in a water bath at 37° C. prior to experiment. Plasma was centrifuged at 4000 rpm for 5 min and the clots were removed if any. The pH will be adjusted to 7.4 ± 0.1 if required.
(§4) Preparation of compounds: 1 mM intermediate solution was prepared by diluting 10 µL of the stock solution with 90 µL DMSO; 1 mM intermediate of positive control Propantheline was prepared by diluting 10 µL of the stock solution with 90 µL ultrapure water. For test compounds, 100 µM dosing solution was prepared by diluting 10 µL of the intermediate solution (1 mM) with 90 µL DMSO. […] 98 µL of blank plasma was spiked with 2 µL of dosing solution (100 µM) to achieve 2 µM of the final concentration in duplicate and samples were Incubated at 37° C. in a water bath. […] Centrifuged sample plates at 4,000 rpm for 10 min. An aliquot of supernatant (50 µL) was transferred from each well and mixed with 100 µL ultra-pure water. The samples were shaken at 800 rpm for about 10 min before submitting to LC-MS/MS analysis. The % remaining of test compound after incubation in plasma was calculated using following equation:
(§5) where PAR is the peak area ratio of analyte versus internal standard (IS).
Procedure for Plasma stability, mice: as §3, §4, §5

With `CC(C(=O)NC1CCC(F)(F)CC1)(c1cncnc1)N(C(=O)CCl)c1ccc(-c2ccno2)cc1` (single isomer, unassigned) [INSCoV-601P(1A), 2-(2-Chloro-N-(4-(isoxazol-5-yl)phenyl)acetamido)-N-(4,4-difluorocyclohexyl)-2-(pyrimidin-5-yl)propanamide], the IC50 on SARS-CoV-2 M^PRO [1] was 0.14 µM; against CYP 2C9, greater than 50 µM; on CYP 1A2, greater than 50 µM; against CYP 2D6, 6.12 µM; on CYP 3A4, 3.62 µM; against CYP 2C19 it was greater than 50 µM. Further, the microsomal CLint came to 66 µL/min/mg in data set [2] and 102 µL/min/mg in data set [3]. The same compound came in with a Papp A→B at 2 h, 2 µM in the data set “Caco-2 permeability” of less than 0.48 ×10⁻⁶ cm/s. Also, the efflux ratio at 2 h, 2 µM in the data set “Caco-2 permeability” is greater than 0.489. Further, the Papp at 4 h, 10 µM in the data set “PAMPA permeability assay” (pH 7.4) was 0.626 ×10⁻⁶ cm/s. In addition, the half-life at 2 µM in “Plasma stability, mice” (pH 7.4) is 13.1 min; in the data set “Plasma stability, human” it was 16.3 min. Moreover, in “physchem”, the kinetic solubility amounted to 142 µM (≈ 71.6 µg/mL). The values for the recovery in “in vitro [4]” and in the data set “in vitro [5]” were 2.8% and 1.3%, respectively.

For the compound `O=C(NC1CCC(F)(F)CC1)[C@@H](c1cncnc1)N(C(=O)[C@@H](F)Cl)c1ccc(-c2cncs2)cc1` (single isomer, unassigned) [INSCoV-614(1B), 2-Chloro-N-(2-((4,4-difluorocyclohexyl)amino)-2-oxo-1-(pyrimidin-5-yl)ethyl)-2-fluoro-N-(4-(thiazol-5-yl)phenyl)acetamide], the IC50 at SARS-CoV-2 M^PRO [1] worked out at 0.06 µM; on CYP 2C9 it was 15.6 µM; against CYP 1A2, 24.3 µM; on CYP 2D6 it was 6.5 µM; on CYP 3A4, 1.45 µM; at CYP 2C19 it was 9.5 µM. Further, the EC50 in the data set on SARS-CoV-2 is 2.23 µM. Further, the “PAMPA, Mean Pe” value in “PAMPA permeability assay” (4 h, 10 µM, pH 7.4) turned out to be 0.188 ×10⁻⁶ cm/s. This compound also came in with a Papp at 4 h, 10 µM in the data set “PAMPA permeability assay” (pH 7.4) of 0.188 ×10⁻⁶ cm/s. In the data set “Plasma stability, mice”, the “Stability in plasma (in words)” value is “significantly improved stability in plasma”. Besides, the “Plasma stability, T½, min, mice” value in “Plasma stability, mice” (2 µM, pH 7.4) is reported as greater than 289.1 min. For the same compound, the half-life at 2 µM in “Plasma stability, mice” (pH 7.4) was greater than 289 min; in the data set “Plasma stability, human”, greater than 289 min. For the same compound, the “Plasma stability, T½, min, human” value in “Plasma stability, human” (2 µM) was greater than 289.1 min. Also, in [6], the “PPB, mice, % Bound” value was found to be 83.78%. For the same compound, the “PPB, human, % Bound” value in [7] is 70.59%. This compound returned a CC50 at 24 h in “in vitro [8]” greater than 25 µM. The kinetic solubility in “physchem” is 164 µM (≈ 85.9 µg/mL).

Consider `O=C(NC1CCC(F)(F)CC1)[C@@H](c1cnccn1)N(C(=O)CCl)c1ccc(-c2ccns2)cc1` [INSCoV-601I(l)], for which, on SARS-CoV-2 M^PRO [1], the IC50 came out at 0.05 µM. The same compound returned an EC50 with SARS-CoV-2 of 14.1 µM. In addition, the “Binding mode in crystal structure” value at SARS-CoV-2 M^PRO [9] is “covalently bound to Cys145 residue of SARS-CoV-2 M^Pro”.

As for `CC(C(=O)NC1CCC(F)(F)CC1)(c1cnccn1)N(C(=O)CCl)c1ccc(-c2ccns2)cc1` (stereo not drawn) [INSCoV-601N, 2-(2-Chloro-N-(4-(isothiazol-5-yl)phenyl)acetamido)-N-(4,4-difluorocyclohexyl)-2-(pyrazin-2-yl)propanamide], the IC50 on SARS-CoV-2 M^PRO [1] worked out at 0.12 µM; on CYP 2C9 it was 3.25 µM; on CYP 1A2 it was 24.9 µM; against CYP 2D6, 0.706 µM; against CYP 3A4 it was 0.218 µM; against CYP 2C19, 5.65 µM. Further, the microsomal CLint was found to be 169 µL/min/mg in [2] and 531 µL/min/mg in [3]. The Papp A→B at 2 h, 2 µM in “Caco-2 permeability” (A to B, 2.00 µM, pH 7.40, read-out: Caco-2, Mean Papp,, A to B) was less than 0.0434 ×10⁻⁶ cm/s. Moreover, in “PAMPA permeability assay” (pH 7.4, pH 7.40, 4 h, read-out: PAMPA, Mean Pe), the Papp at 4 h, 10 µM is 15.5 ×10⁻⁶ cm/s. Further, the half-life at 2 µM in the data set “Plasma stability, mice” (pH 7.4) was found to be 21.1 min; in the data set “Plasma stability, human”, 32.6 min. This compound returned a solubility (kinetic) in “physchem” of less than 1.56 µM. For the same compound, the recovery in the data set “in vitro [4]” stood at 0.1%; in “in vitro [5]”, 0.2%.

With `Cc1cccc(C)c1OCC(=O)N[C@@H](Cc1ccccc1)[C@@H](O)C[C@H](Cc1ccccc1)NC(=O)[C@H](C(C)C)N1CCCNC1=O` [Lopinavir, lopinavir, reference compound], the EC50 with SARS-CoV-2 stood at 13.9 µM. In [10], this compound registered a CC50 at 24 h greater than 50 µM.
